# Source: patent publication US7335725B2, “Lipopeptides as antibacterial agents” (priority 1999, dated 2008)
# How the values were obtained:
# [1] = tested on: S. aureus; test: MIC by NCCLS broth microdilution, S. aureus; assay type: cell-based; conditions: Mueller-Hinton Broth with 50 mg/L Ca2+, 37° C.
# Protocol: (§1) Compounds were dissolved in 100% dimethyl sulfoxide and were diluted to the final reaction concentration (0.1 μg/mL-100 μg/mL) in microbial growth media. In all cases the final concentration of dimethyl sulfoxide incubated with cells is less than or equal to 1%. […] The optical densities (OD) of the bacterial cells, which measures bacterial cell growth and proliferation, were measured using a commercial plate reader. The MIC value is defined as the lowest compound concentration inhibiting growth of the test organism.
# [2] = tested on: E. faecalis; test: MIC by NCCLS broth microdilution, E. faecalis; assay type: cell-based; conditions: Mueller-Hinton Broth with 50 mg/L Ca2+, 37° C.
# Protocol: as §1
substance,measurement,setting,value
"Boc-protected daptomycin α,β-tridecenoyl amide [Compound 110]",MIC (μg/ml) S. aureus,[1],+++ (the compound has an MIC (μg/ml) of 1 μg/ml or less)
same,MIC (μg/ml) E. faecalis,[2],"++ (an MIC (μg/ml) or an ED50 (mg/kg) of more than 1 μg/ml or 1 mg/kg, respectively, but less than or equal to 10 μg/ml or 10 mg/kg, respectively)"
